Measurements taken from ChEMBL document CHEMBL4834419 (J Med Chem, 2021).

Target: T1, Retinoic acid receptor RXR-alpha (Homo sapiens, UniProt P19793)
T1 sequence (P19793 whole entry): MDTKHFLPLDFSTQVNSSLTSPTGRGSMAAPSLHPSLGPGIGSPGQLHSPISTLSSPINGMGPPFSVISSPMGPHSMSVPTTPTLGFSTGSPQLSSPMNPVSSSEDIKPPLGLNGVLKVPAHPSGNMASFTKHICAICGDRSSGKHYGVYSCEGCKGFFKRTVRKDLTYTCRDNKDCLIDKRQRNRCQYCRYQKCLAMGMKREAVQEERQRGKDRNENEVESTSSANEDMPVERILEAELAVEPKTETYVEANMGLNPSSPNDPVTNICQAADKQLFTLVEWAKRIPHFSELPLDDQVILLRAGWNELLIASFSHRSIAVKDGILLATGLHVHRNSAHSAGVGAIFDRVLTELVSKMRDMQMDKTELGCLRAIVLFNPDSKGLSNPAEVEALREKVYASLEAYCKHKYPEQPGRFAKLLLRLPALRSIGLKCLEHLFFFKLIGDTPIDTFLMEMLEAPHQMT
Assay: Agonist activity at human RXRalpha transfected in human HEK293T cells co-expressing pFR/pRL-Luc incubated for 14 to 16 hrs by hybrid reporter gene assay
Format: cell-based

- EC50: 250 nM
SMILES: O=C(O)CCCc1cc(-c2cc(Cl)cc(Cl)c2)n(-c2ccccc2)n1
